Measured values published in the supplement of paper PMC10307832.

Experiments:
Assay in all cases: relative viability (nuclei count vs DMSO), 5 days (fraction); higher = more cells survive
Ruboxistaurin = compound: CN(C)C[C@@H]1CCn2cc(c3ccccc32)C2=C(C(=O)NC2=O)c2cn(c3ccccc23)CCO1 [Ruboxistaurin]
Procedure, shortened: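 Following overnight incubation at 37 °C, lung cancer cell lines in 1536-well plates were pinned with five library-drug doses (not always all listed) in √10 steps on vehicle-anchored plates. The cells then spent 5 days without medium change before a combined fix, permeabilisation and Hoechst stain, 4× imaging and MetaXpress nuclear counts. Viability is the treated-to-vehicle ratio of nuclei, taken as the median across plates. Only plates with control CV below 25% and at least one doubling passed.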

[1] = compound: CN(C)C[C@@H]1CCn2cc(c3ccccc32)C2=C(C(=O)NC2=O)c2cn(c3ccccc23)CCO1 [Ruboxistaurin] + O=C(CCCCCCC(=O)Nc1ccccc1)NO [Vorinostat] (partner 1 µM)
Procedure, shortened: (§1)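 Relative viability equals treated-well nuclei counts divided by vehicle-well nuclei counts. Counts came from 4× images of lung cancer cell lines grown in 1536-well plates for 5 days after pin-tool dosing on the day after seeding. Dosing used one drug alone or a fixed anchor-drug dose plus five library-drug doses (not always all listed) in √10 steps, and values are medians of duplicate plates.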

[2] = compound: CN(C)C[C@@H]1CCn2cc(c3ccccc32)C2=C(C(=O)NC2=O)c2cn(c3ccccc23)CCO1 [Ruboxistaurin] + Nc1nc2[nH]cc(CCc3ccc(C(=O)N[C@@H](CCC(=O)O)C(=O)O)cc3)c2c(=O)[nH]1 [Pemetrexed] (partner 0.2 µM)
Procedure, shortened: as §1

Ruboxistaurin + Olaparib = compound: CN(C)C[C@@H]1CCn2cc(c3ccccc32)C2=C(C(=O)NC2=O)c2cn(c3ccccc23)CCO1 [Ruboxistaurin] + O=C(c1cc(Cc2n[nH]c(=O)c3ccccc23)ccc1F)N1CCN(C(=O)C2CC2)CC1 [Olaparib] (partner 8 µM)
Procedure, shortened: as §1

[3] = compound: CN(C)C[C@@H]1CCn2cc(c3ccccc32)C2=C(C(=O)NC2=O)c2cn(c3ccccc23)CCO1 [Ruboxistaurin] + Cc1cc(Nc2cc(N3CCN(C)CC3)nc(Sc3ccc(NC(=O)C4CC4)cc3)n2)n[nH]1 [Tozasertib] (partner 0.1 µM)
Procedure, shortened: as §1

[4] = compound: CN(C)C[C@@H]1CCn2cc(c3ccccc32)C2=C(C(=O)NC2=O)c2cn(c3ccccc23)CCO1 [Ruboxistaurin] + Nc1ncn([C@H]2C[C@H](O)[C@@H](CO)O2)c(=O)n1 [Decitabine] (partner 2 µM)
Procedure, shortened: as §1

[5] = compound: CN(C)C[C@@H]1CCn2cc(c3ccccc32)C2=C(C(=O)NC2=O)c2cn(c3ccccc23)CCO1 [Ruboxistaurin] + CC(=O)Nc1cccc(-n2c(=O)n(C3CC3)c(=O)c3c(Nc4ccc(I)cc4F)n(C)c(=O)c(C)c32)c1 [Trametinib] (partner 0.02 µM)
Procedure, shortened: as §1

[6] = compound: CN(C)C[C@@H]1CCn2cc(c3ccccc32)C2=C(C(=O)NC2=O)c2cn(c3ccccc23)CCO1 [Ruboxistaurin] + CC(=O)c1c(C)c2cnc(Nc3ccc(N4CCNCC4)cn3)nc2n(C2CCCC2)c1=O [Palbociclib] (partner 0.5 µM)
Procedure, shortened: as §1

Ruboxistaurin + AZD7762 = compound: CN(C)C[C@@H]1CCn2cc(c3ccccc32)C2=C(C(=O)NC2=O)c2cn(c3ccccc23)CCO1 [Ruboxistaurin] + NC(=O)Nc1cc(-c2cccc(F)c2)sc1C(=O)N[C@H]1CCCNC1 [AZD7762] (partner 0.2 µM)
Procedure, shortened: as §1

Ruboxistaurin + OSI-027 = compound: CN(C)C[C@@H]1CCn2cc(c3ccccc32)C2=C(C(=O)NC2=O)c2cn(c3ccccc23)CCO1 [Ruboxistaurin] + COc1cccc2cc(-c3nc([C@H]4CC[C@H](C(=O)O)CC4)n4ncnc(N)c34)[nH]c12 [OSI-027] (partner 0.5 µM)
Procedure, shortened: as §1

[7] = compound: CN(C)C[C@@H]1CCn2cc(c3ccccc32)C2=C(C(=O)NC2=O)c2cn(c3ccccc23)CCO1 [Ruboxistaurin] + CC(C)C[C@H](NC(=O)[C@H](Cc1ccccc1)NC(=O)c1cnccn1)B(O)O [Bortezomib] (partner 0.002 µM)
Procedure, shortened: as §1

[8] = compound: CN(C)C[C@@H]1CCn2cc(c3ccccc32)C2=C(C(=O)NC2=O)c2cn(c3ccccc23)CCO1 [Ruboxistaurin] + CS(=O)(=O)N1CCN(Cc2cc3nc(-c4cccc5[nH]ncc45)nc(N4CCOCC4)c3s2)CC1 [Pictilisib] (partner 1 µM)
Procedure, shortened: as §1

[9] = compound: CN(C)C[C@@H]1CCn2cc(c3ccccc32)C2=C(C(=O)NC2=O)c2cn(c3ccccc23)CCO1 [Ruboxistaurin] + CC1(C)CCC(c2ccc(Cl)cc2)=C(CN2CCN(c3ccc(C(=O)NS(=O)(=O)c4ccc(N[C@H](CCN5CCOCC5)CSc5ccccc5)c(S(=O)(=O)C(F)(F)F)c4)cc3)CC2)C1 [Navitoclax] (partner 0.5 µM)
Procedure, shortened: as §1

[10] = compound: CN(C)C[C@@H]1CCn2cc(c3ccccc32)C2=C(C(=O)NC2=O)c2cn(c3ccccc23)CCO1 [Ruboxistaurin] + COc1cc2c(Oc3ccc(NC(=O)C4(C(=O)Nc5ccc(F)cc5)CC4)cc3F)ccnc2cc1OCCCN1CCOCC1 [Foretinib] (partner 0.25 µM)
Procedure, shortened: as §1

[11] = compound: CN(C)C[C@@H]1CCn2cc(c3ccccc32)C2=C(C(=O)NC2=O)c2cn(c3ccccc23)CCO1 [Ruboxistaurin] + CS(=O)(=O)CCNCc1ccc(-c2ccc3ncnc(Nc4ccc(OCc5cccc(F)c5)c(Cl)c4)c3c2)o1 [Lapatinib] (partner 2 µM)
Procedure, shortened: as §1

[12] = compound: CN(C)C[C@@H]1CCn2cc(c3ccccc32)C2=C(C(=O)NC2=O)c2cn(c3ccccc23)CCO1 [Ruboxistaurin] + C[C@@H](Oc1cc(-c2cnn(C3CCNCC3)c2)cnc1N)c1c(Cl)ccc(F)c1Cl [Crizotinib] (partner 1 µM)
Procedure, shortened: as §1

[13] = compound: CN(C)C[C@@H]1CCn2cc(c3ccccc32)C2=C(C(=O)NC2=O)c2cn(c3ccccc23)CCO1 [Ruboxistaurin] + C[C@]1(O)C[C@@H](c2nc(-c3ccc4ccc(-c5ccccc5)nc4c3)c3c(N)nccn32)C1 [Linsitinib] (partner 1 µM)
Procedure, shortened: as §1

[14] = compound: CN(C)C[C@@H]1CCn2cc(c3ccccc32)C2=C(C(=O)NC2=O)c2cn(c3ccccc23)CCO1 [Ruboxistaurin] + Cc1nc(NC(=O)N2CCC[C@H]2C(N)=O)sc1-c1ccnc(C(C)(C)C(F)(F)F)c1 [Alpelisib] (partner 2 µM)
Procedure, shortened: as §1

In the case of NCI-H1648, the relative viability (Ruboxistaurin; 0.08 µM) is reported as 0.894, the relative viability (Ruboxistaurin; 0.8 µM) is reported as 0.966 and the relative viability (Ruboxistaurin; 2.53 µM) is reported as 1.11. The relative viability (Ruboxistaurin; 8 µM) was 1.15, the relative viability ([1]; first compound 0.08 µM) was 0.622 and the relative viability ([1]; first compound 0.8 µM) was 0.433. For the same cell line, the relative viability ([1]; first compound 2.53 µM) was 0.425, the relative viability ([1]; first compound 8 µM) was 0.634 and the relative viability ([2]; first compound 0.08 µM) was 0.699. For the same cell line, the relative viability ([2]; first compound 0.8 µM) was 0.717, the relative viability ([2]; first compound 2.53 µM) was 0.612 and the relative viability ([2]; first compound 8 µM) was 0.894. The relative viability (Ruboxistaurin + Olaparib; first compound 0.08 µM) was 1.33, the relative viability (Ruboxistaurin + Olaparib; first compound 0.8 µM) was 0.64 and the relative viability (Ruboxistaurin + Olaparib; first compound 2.53 µM) was 0.797. For the same cell line, the relative viability (Ruboxistaurin + Olaparib; first compound 8 µM) was 1.22, the relative viability ([3]; first compound 0.08 µM) was 0.439 and the relative viability ([3]; first compound 0.8 µM) was 0.438. For the same cell line, the relative viability ([3]; first compound 2.53 µM) was 0.482, the relative viability ([3]; first compound 8 µM) was 0.792 and the relative viability ([4]; first compound 0.08 µM) was 0.514. For the same cell line, the relative viability ([4]; first compound 0.8 µM) was 0.501, the relative viability ([4]; first compound 2.53 µM) was 0.44 and the relative viability ([4]; first compound 8 µM) was 0.536. The relative viability ([5]; first compound 0.08 µM) was 0.643, the relative viability ([5]; first compound 0.8 µM) was 0.53 and the relative viability ([5]; first compound 2.53 µM) was 0.455. For the same cell line, the relative viability ([5]; first compound 8 µM) was 0.681, the relative viability ([6]; first compound 0.08 µM) was 0.248 and the relative viability ([6]; first compound 0.8 µM) was 0.254. It also gave a relative viability ([6]; first compound 2.53 µM) of 0.285, a relative viability ([6]; first compound 8 µM) of 0.247 and a relative viability (Ruboxistaurin + AZD7762; first compound 0.08 µM) of 0.621. It also gave a relative viability (Ruboxistaurin + AZD7762; first compound 0.8 µM) of 0.591, a relative viability (Ruboxistaurin + AZD7762; first compound 2.53 µM) of 0.835 and a relative viability (Ruboxistaurin + AZD7762; first compound 8 µM) of 0.865. It also gave a relative viability (Ruboxistaurin + OSI-027; first compound 0.08 µM) of 0.246, a relative viability (Ruboxistaurin + OSI-027; first compound 0.8 µM) of 0.278 and a relative viability (Ruboxistaurin + OSI-027; first compound 2.53 µM) of 0.291. For the same cell line, the relative viability (Ruboxistaurin + OSI-027; first compound 8 µM) was 0.274.

Cell Line Calu-6 has a relative viability (Ruboxistaurin; 0.08 µM) of 1.07, a relative viability (Ruboxistaurin; 0.8 µM) of 0.951 and a relative viability (Ruboxistaurin; 2.53 µM) of 1.06. It also gave a relative viability (Ruboxistaurin; 8 µM) of 0.982, a relative viability ([7]; first compound 0.08 µM) of 1.12 and a relative viability ([7]; first compound 0.8 µM) of 0.948. For the same cell line, the relative viability ([7]; first compound 2.53 µM) was 1.1, the relative viability ([7]; first compound 8 µM) was 1.17 and the relative viability ([8]; first compound 0.08 µM) was 0.94. It also gave a relative viability ([8]; first compound 0.8 µM) of 0.848, a relative viability ([8]; first compound 2.53 µM) of 0.795 and a relative viability ([8]; first compound 8 µM) of 0.607. The relative viability ([9]; first compound 0.08 µM) was 0.967, the relative viability ([9]; first compound 0.8 µM) was 0.776 and the relative viability ([9]; first compound 2.53 µM) was 0.862. The relative viability ([9]; first compound 8 µM) was 1.01, the relative viability ([10]; first compound 0.08 µM) was 0.949 and the relative viability ([10]; first compound 0.8 µM) was 0.848. It also gave a relative viability ([10]; first compound 2.53 µM) of 0.93, a relative viability ([10]; first compound 8 µM) of 0.893 and a relative viability (Ruboxistaurin + Olaparib; first compound 0.08 µM) of 0.635. The relative viability (Ruboxistaurin + Olaparib; first compound 0.8 µM) was 0.564, the relative viability (Ruboxistaurin + Olaparib; first compound 2.53 µM) was 0.669 and the relative viability (Ruboxistaurin + Olaparib; first compound 8 µM) was 0.585. It also gave a relative viability ([11]; first compound 0.08 µM) of 1.15, a relative viability ([11]; first compound 0.8 µM) of 1.02 and a relative viability ([11]; first compound 2.53 µM) of 1.08. It also gave a relative viability ([11]; first compound 8 µM) of 0.933, a relative viability ([12]; first compound 0.08 µM) of 0.899 and a relative viability ([12]; first compound 0.8 µM) of 0.697. It also gave a relative viability ([12]; first compound 2.53 µM) of 0.807, a relative viability ([12]; first compound 8 µM) of 0.822 and a relative viability ([13]; first compound 0.08 µM) of 0.978. It also gave a relative viability ([13]; first compound 0.8 µM) of 0.804, a relative viability ([13]; first compound 2.53 µM) of 0.913 and a relative viability ([13]; first compound 8 µM) of 0.942. The relative viability ([14]; first compound 0.08 µM) was 0.95, the relative viability ([14]; first compound 0.8 µM) was 0.897 and the relative viability ([14]; first compound 2.53 µM) was 0.981. For the same cell line, the relative viability ([14]; first compound 8 µM) was 0.809.
